Patent publication US20140121220A1, “CRYSTALS OF PHENYLPYRROLE DERIVATIVE” (Daiichi Sankyo Company, Limited, priority 2011, published 2014)
≈ marks a conversion by molar mass, not a printed value. Read-outs that look alike come from different tables or passages of the source.

Assays:
[1] = system: spontaneously diabetic rats (ZDF-Lepr^fa/CrlCrlj); assay: Blood glucose lowering activity test (Test Example 6); assay type: in vivo, rat; conditions: for Area under blood glucose curve: 0 to 6 hours after oral administration, fasting, Form I crystal 10 mg/kg, Compound II 8.3 mg/kg (equivalent as free form), average of five
Protocol: Male, 9-week-old, spontaneously diabetic rats (ZDF-Lepr^fa/CrlCrlj) were used.
A crystal of the compound of the present invention in the form of the Form I crystal at 10 mg/kg or the free form thereof in the form of Compound II at 8.3 mg/kg (calculated based on the free form, corresponding to the equivalent of 10 mg/kg of the Form I crystal) was respectively suspended in a 20% aqueous HP-β-cyclodextrin solution (hereinafter referred to as “vehicle”) and orally administered under fasting conditions.
Blood glucose levels were measured in accordance with ordinary methods before administration of the compounds (at 0 hour) and at 0.5, 1, 2, 4 and 6 hours after administration. Namely, the tips of the rat tails (about 1 mm) were severed and blood collected with hematocrit tubes subjected to anticoagulation treatment with heparin were centrifuged followed by measuring the resulting plasma with the Glucoroder F (A&T Corporation). The areas under blood glucose curves from 0 to 6 hours after administration were calculated using the resulting blood glucose values.
The results of a blood glucose lowering activity test on each group administered with the Form I crystal, Compound II or vehicle only were as shown in Table 8.
Furthermore, the values shown in Table 8 are all the average values of test result values obtained using five spontaneously diabetic rats (ZDF-Lepr^fa/CrlCrlj).

[2] = Solubility test (Test Example 4); assay type: physicochemical; conditions: 4 mg in 2 mL; for solubility at 30 min: 37 °C, thermodynamic from solid, read-out: Concentration (solubility); for Concentration (solubility): 37° C., 30 minutes
Protocol: The Form I crystal (4 mg), the Form II crystal (4 mg) and Compound II (4 mg) were respectively dissolved in 2 mL of water, Japanese Pharmacopoeia Elution Test Solution 1 (JP1), Japanese Pharmacopoeia Elution Test Solution 2 (JP2), Fasted State Simulated Intestinal Fluid (FaSSIF) and Fed State Simulated Intestinal Fluid (FeSSIF). After stirring vigorously for 30 seconds every 5 minutes in a constant temperature water bath at 37° C., a portion of the supernatant was sampled 30 minutes later and filtered with a syringe filter. The filtrate was suitably diluted for use as the sample solution.
The sample solution was measured using HPLC under the following conditions.
HPLC system: Waters Alliance
Column: Waters, XBridge C18 3.5 μm
Column temperature: 40° C.
Solvent A: 5 mM aqueous ammonium hydrogencarbonate solution
The gradient program is as indicated below.

[3] = Evaluation of in vivo absorption
[4] = Hygroscopicity test (Test Example 3); assay type: physicochemical; conditions: 25° C., 10 to 90% RH
Protocol: The sample was weighed in a glass sample cup, and weight was measured under the conditions indicated below.
Measuring instrument: SGA-100 (VTI Corp.)
Measuring temperature: 25° C.
Minimum exposure time: 15 min
Maximum exposure time: 120 min
Step transition condition: within 0.03 wt %
The appearance of the sample was observed following completion of measurement.

[5] = Fed State Simulated Intestinal Fluid (FeSSIF)
[6] = Japanese Pharmacopoeia Elution Test Solution 2 (JP2)
[7] = Fasted State Simulated Intestinal Fluid (FaSSIF)
[8] = Japanese Pharmacopoeia Elution Test Solution 1 (JP1)

Compound	Area under blood glucose curve [1] [mg/dl × hr]	solubility at 30 min ([2]; Fasted State Simulated Intestinal Fluid (FaSSIF), fassif, Fasted State Simulated Intestinal Fluid (FaSSIF)) [mg/mL]	Concentration (solubility) [2, 5] [mg/mL]	solubility at 30 min ([2]; Japanese Pharmacopoeia Elution Test Solution 1 (JP1), pH 1.2, simulated gastric fluid, Japanese Pharmacopoeia Elution Test Solution 1 (JP1)) [mg/mL]	Concentration (solubility) [2, 6] [mg/mL]	Concentration (solubility) ([2]; Water) [mg/mL]	Blood glucose lowering activity compared with Compound II ([1]; oral, 10 mg/kg Form I crystal vs 8.3 mg/kg Compound II)	Blood concentrations in comparison with Compound II [3]	Hygroscopicity (moisture sorption-desorption behavior) [4]	Concentration (solubility) [2, 7] [mg/mL]	Concentration (solubility) [2, 8] [mg/mL]
C[C@H]1CN=C(c2ccc(-c3cc(Oc4cnc(S(C)(=O)=O)cn4)cc(O[C@@H](C)CO)c3)[nH]2)O1 [Compound II, (2S)-2-(3-{5-[(5S)-5-Methyl-4,5-dihydro-1,3-oxazol-2-yl]-1H-pyrrol-2-yl}-5-{[5-(methylsulfonyl)pyrazin-2-yl]oxy}phenoxy)propan-1-ol, reference compound]	661.8 ± 26.9	0.012 (≈ 25.4 µM)	0.222	> 1.5	0.00587	0.00559					
C[C@H]1CN=C(c2ccc(-c3cc(Oc4cnc(S(C)(=O)=O)cn4)cc(O[C@@H](C)CO)c3)[nH]2)O1 [Form I crystal, (2S)-2-(3-{5-[(5S)-5-Methyl-4,5-dihydro-1,3-oxazol-2-yl]-1H-pyrrol-2-yl}-5-{[5-(methylsulfonyl)pyrazin-2-yl]oxy}phenoxy)propan-1-ol monomethanesulfonate]	529.0 ± 24.5		1.145		0.0118	>1.5	superior to that of the free form	high blood concentrations in comparison with Compound II	did not demonstrate hygroscopicity	0.0204	>1.5
C[C@H]1CN=C(c2ccc(-c3cc(Oc4cnc(S(C)(=O)=O)cn4)cc(O[C@@H](C)CO)c3)[nH]2)O1 [Form II crystal, (2S)-2-(3-{5-[(5S)-5-Methyl-4,5-dihydro-1,3-oxazol-2-yl]-1H-pyrrol-2-yl}-5-{[5-(methylsulfonyl)pyrazin-2-yl]oxy}phenoxy)propan-1-ol monomethanesulfonate]			1.381		0.0141	>1.5		high blood concentrations in comparison with Compound II	did not demonstrate hygroscopicity	0.0205	>1.5
